Laboratory results from the Bradley open melting point set (2014).
Several values for one entry are separate records, joined by “and”; a condition that tells them apart may be missing. Equal entries are not always repeated.

melting point	SMILES
202 °C	Nc1ccc(S(=O)(=O)Nc2nccs2)cc1 [sulfathiazole]
243 °C	Cc1cc(NS(=O)(=O)c2ccc(N)cc2)nc(C)n1 [sulfisomidine]
185 °C	CS(=O)c1ccc(cc1)/C=C3c2ccc(F)cc2C(CC(=O)O)=C3C (stereo not given) [sulindac]
184 °C	CC1=C(CC(=O)O)c2cc(F)ccc2/C1=C\c1ccc(S(C)=O)cc1 (stereo not given) [sulindac]
179 °C	CCN1CCCC1CNC(=O)c1cc(S(N)(=O)=O)ccc1OC (stereo not given) [sulpiride]
-26 °C	CC(C)(C)Cl [tert-butyl chloride]
-58 °C	CC(C)(C)c1ccccc1 [tert-butylbenzene]
156 °C	O=C(O)c1c(F)c(F)c(F)c(F)c1C(=O)O [tetrafluorophthalic acid]
62 °C	O=C1CCSCC1 [tetrahydro-4h-thiopyran-4-one]
147 °C	OB(O)c1cccc2c1Sc1ccccc1S2 [thianthrene-1-boronic acid]
130 °C	OB(O)c1cccs1 [thiophene-2-boronic acid]
139 °C	O=C(O)c1ccsc1 [thiophene-3-carboxylic acid]
177 °C	NC(N)=S [thiourea]
212 °C	O=c1c2ccccc2sc2ccccc12 [thioxanthen-9-one]
188 °C	Cc1cn([C@H]2C[C@H](O)[C@@H](CO)O2)c(=O)[nH]c1=O [thymidine]
51 °C	Cc1ccc(C(C)C)c(O)c1 [thymol]
252 °C	Cc1cc(O)c(C(C)C)cc1C1(c2cc(C(C)C)c(O)cc2C)OC(=O)c2ccccc21 [thymolphthalein]
64 °C	C/C=C(\C)C(=O)O [tiglic acid]
164 °C	COc1ccc2c(C(=S)N(C)CC(=O)O)cccc2c1C(F)(F)F [tolrestat]
113 °C	OC/C(Br)=C(\Br)CO [trans-2,3-dibromo-2-butene-1,4-diol]
217 °C	O=C(O)/C=C/c1ccccc1O [trans-2-hydroxycinnamic acid]
-136 °C	C/C=C/CC [trans-2-pentene]

melting point	SMILES
180 °C	O=C(O)/C=C/c1cccc(Br)c1 [trans-3-bromocinnamic acid]
54 °C	CCCCC[C@H]1CC[C@H](C(=O)O)CC1 [trans-4-n-pentylcyclohexanecarboxylic acid]
135 °C	O=C(O)/C=C/c1ccccc1 [trans-cinnamic acid]
316 °C	Nc1nc(N)c2nc(-c3ccccc3)c(N)nc2n1 [triamterene]
15 °C	CCCCCCCCCCCCC=O [tridecanal]
115 °C	OC(CCN1CCCCC1)(c1ccccc1)C1CCCCC1 (stereo not given) [trihexyphenidyl]
200 °C	COc1cc(Cc2cnc(N)nc2N)cc(OC)c1OC [trimethoprim]
17 °C	CC(C)(C)C#N [trimethylacetonitrile]
45 °C	CC(CN(C)C)CN1c2ccccc2CCc2ccccc21 (stereo not given) [trimipramine]
127 °C	c1ccc(N(c2ccccc2)c2ccccc2)cc1 [triphenylamine]
147 °C	c1ccc(B(c2ccccc2)c2ccccc2)cc1 [triphenylborane]
199 °C and 196 °C and 197 °C	c1ccc2c(c1)c1ccccc1c1ccccc21 [triphenylene]
163 °C	OC(c1ccccc1)(c1ccccc1)c1ccccc1 [triphenylmethanol] [listing 1 of 2 here]
163 °C	OC(c1ccccc1)(c1ccccc1)c1ccccc1 [triphenylmethanol] [listing 2 of 2 here]
43 °C	c1ccc([SiH](c2ccccc2)c2ccccc2)cc1 [triphenylsilane]
53 °C	O=c1cccccc1O [tropolone]
0 °C and -2 °C	CCCCCCCCCCC=O [undecanal]
330 °C	O=c1cc[nH]c(=O)[nH]1 [uracil]
82 °C	COc1cc(C=O)ccc1O [vanillin]
178 °C	Cc1cc(CC(=O)O)n(C)c1C(=O)c1ccc(Cl)cc1 [zomepirac]
197 °C	O=C(O)Cc1nn(Cc2nc3cc(C(F)(F)F)ccc3s2)c(=O)c2ccccc12 [zopolrestat]

Continued, molecule first:

SMILES	melting point
CC(C)(C)OOC(=O)c1ccccc1 [tert-Butyl benzenecarboperoxoate]	8 °C
O=C5\C=C4/C(C3CCC2(C(CCC2OC(=O)Cc1ccccc1)C3CC4)C)(C)CC5 (stereo not given) [testosterone phenylacetate]	129 °C
O=C5\C=C3/[C@]([C@H]2CC[C@@]4([C@@H](OC(=O)CCc1ccccc1)CC[C@H]4[C@@H]2CC3)C)(C)CC5 [testosterone phenylpropionate]	116 °C
C[C@]12CC[C@H]3[C@@H](CCC4=CC(=O)CC[C@@]43C)[C@@H]1CC[C@@H]2O [testosterone]	154 °C
ClC(Cl)=C(Cl)Cl [tetrachloroethylene]	-22 °C
ClC(Cl)(Cl)Cl [tetrachloromethane]	-23 °C
O=C1OC(=O)c2c(Cl)c(Cl)c(Cl)c(Cl)c21 [tetrachlorophthalic anhydride]	256 °C
CCCCCCCCCCCCCC=O [tetradecyl_aldehyde]	24 °C
CCO[Si](OCC)(OCC)OCC [tetraethoxysilane]	-85 °C
CC[Si](CC)(CC)CC [tetraethylsilane]	-82 °C
C1CCOC1 [tetrahydrofuran]	-108 °C
CN(C)C(=S)SSC(=S)N(C)C [tetramethylthiuram disulfide]	150 °C
C=CCC1(C2C=CCCC2)C(=O)NC(=S)NC1=O (stereo not given) [thialbarbital]	148 °C
c1ccsc1 [thiophene]	-38 °C (3×) and -38.2 °C and -38.3 °C (2×)
Cc1ccc(N=C=O)cc1N=C=O [toluene-2,4-diisocyanate]	21 °C
Cc1ccccc1 [toluene]	-93 °C

SMILES	melting point
C/C=C/CCCCC [trans-2-octene] [listing 1 of 2 here]	-88 °C
C/C=C/CCCCC [trans-2-octene] [listing 2 of 2 here]	-88 °C
CCC/C=C/CCC [trans-4-octene]	-94 °C
C1CC[C@H]2CCCC[C@@H]2C1 [trans-decahydronaphthalene]	-32 °C
CCCCB(CCCC)CCCC [tri-n-butylborane]	-34 °C
CCCN(CCC)CCC [tri-n-propylamine]	-93 °C
O=C(O)C(Br)(Br)Br [tribromoacetic acid]	132 °C
O=C(Cl)C(Cl)(Cl)Cl [trichloroacetyl chloride] [listing 1 of 2 here]	-146 °C
O=C(Cl)C(Cl)(Cl)Cl [trichloroacetyl chloride] [listing 2 of 2 here]	-56.9 °C and -57 °C
CCO[SiH](OCC)OCC [triethoxysilane]	-170 °C
CC(C)OB(OC(C)C)OC(C)C [triisopropyl borate]	-59 °C
CP(C)(C)=O [trimethylphosphine oxide]	141 °C
c1csc(P(c2cccs2)c2cccs2)c1 [tris(2-thienyl)phosphine]	29 °C
C[Si](C)(C)OB(O[Si](C)(C)C)O[Si](C)(C)C [tris(trimethylsilyl) borate]	-35 °C
CN1[C@@H]2CC[C@H]1C[C@@H](O)C2 [tropine]	63 °C
C=COC(C)=O [vinyl acetate]	-100 °C
